The record followed here is PubChem BioAssay AID838 (SRMLSC, 2007).

Each structure is given as a SMILES string. Activity calls are given as the source filed them. No rule for the calls is given here.

One assay deals with Pantothenate synthetase (Mycobacterium tuberculosis (strain ATCC 25618 / H37Rv)) (UniProt P9WIL5). The assay can be described thus: M. tuberculosis pantothenate synthetase inhibitors, biochemical confirmatory screen (AID 838). The following applies: M. tuberculosis pantothenate synthetase enzyme inhibition.
Chain of Pantothenate synthetase (Mycobacterium tuberculosis (strain ATCC 25618 / H37Rv)) (P9WIL5 whole entry, looked up): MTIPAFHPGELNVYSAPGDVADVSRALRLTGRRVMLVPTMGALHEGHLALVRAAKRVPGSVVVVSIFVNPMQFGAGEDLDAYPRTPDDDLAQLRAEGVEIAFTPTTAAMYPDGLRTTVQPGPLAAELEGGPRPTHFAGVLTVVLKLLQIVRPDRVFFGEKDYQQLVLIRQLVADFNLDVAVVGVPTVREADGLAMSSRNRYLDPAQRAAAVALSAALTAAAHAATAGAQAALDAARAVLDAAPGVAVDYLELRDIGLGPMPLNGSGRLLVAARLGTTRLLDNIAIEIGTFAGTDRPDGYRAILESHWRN
On to `O=C(Nc1cnn(Cc2ccc(F)cc2)c1)c1noc2ccc(-c3ccccc3)cc12`, for which the IC50 was 108000 nM.
Turning to `CC(C)(C)C1CCc2onc(C(=O)Nc3cnn(Cc4ccccc4I)c3)c2C1` (stereo not given), the IC50 was 104 nM.
Same read-out and setting: then `CC(C)(C)C1CCc2onc(C(=O)Nc3cnn(Cc4ccc(F)cc4F)c3)c2C1` (stereo not given), with 128 nM; and `CC(C)(C)C1CCc2onc(C(=O)Nc3cnn(Cc4ccc(Cl)cc4Cl)c3)c2C1` (stereo not given), with 111 nM; and `CC(C)(C)C1CCc2onc(C(=O)Nc3cnn(Cc4ccc(I)cc4)c3)c2C1` (stereo not given), with 68 nM.
The same measure, in the same setting: as for `CC(C)(C)c1ccc2onc(C(=O)Nc3cnn(Cc4cccc(F)c4)c3)c2c1`, the figure is 640 nM; as for `CC(C)(C)c1ccc2onc(C(=O)Nc3cnn(Cc4ccc(F)cc4)c3)c2c1`, 351 nM.
Still for that read-out and setting: as for `COc1ccc(-c2cc(C(=O)Nc3cnn(Cc4ccccc4C)c3)no2)cc1`, the figure is 47700 nM; as for `Cc1ccccc1Cn1cc(NC(=O)c2noc3c2CC(C(C)(C)C)CC3)cn1` (stereo not given), 150 nM.
On to `CC(C)(C)C1CCc2onc(C(=O)Nc3cnn(Cc4ccccc4C(F)(F)F)c3)c2C1` (stereo not given), for which the IC50 was 274 nM.
The same measure, in the same setting: as for `CC(C)(C)C1CCc2onc(C(=O)Nc3cnn(Cc4cccc(I)c4)c3)c2C1` (stereo not given), the figure is 101 nM; as for `CC(C)(C)c1ccc2onc(C(=O)Nc3cnn(Cc4ccc(I)cc4)c3)c2c1`, 36300 nM.

The assay is the same for the next values; noted with them: M. tuberculosis pantothenate synthetase enzyme inhibition; at 100 µM; active compounds read high.
On to `COCCN(CC1CCCN(C(=O)c2cc(C)on2)C1)C(C)C` (stereo not given), for which the inhibition result is “inactive”.
On to `Cc1cc(C(=O)N2CCCC(CN3CCC(C(F)(F)F)CC3)C2)no1` (stereo not given), for which the inhibition entry is “inactive”.
Regarding `CCCc1cc(C(=O)Nc2cnn(Cc3ccc(F)cc3)c2)no1`, the inhibition result is “inactive”.
Same read-out and setting: as for `O=C(Nc1cnn(Cc2ccc(F)cc2)c1)c1cc(C2CC2)on1`, the entry is “inactive”.
On the same count and under the same terms, then `CCOc1ccc(Cn2cc(NC(=O)C(C)(C)n3cc([N+](=O)[O-])cn3)cn2)cc1OCC`, with “inactive”; and `Cc1ccccc1Cn1cc(NC(=O)c2cc(-c3cccs3)on2)cn1`, with “inactive”; and `CCc1ccc(C2c3nc[nH]c3CCN2C(=O)c2cc(C)on2)cc1` (stereo not given), with “inactive”.
`Cc1cc(C(=O)N2CCc3[nH]cnc3C2c2ccccc2F)no1` (stereo not given): the inhibition result was “inactive”.
As to `COc1cc(C(=O)Nc2cnn(Cc3cccc(I)c3)c2)cc(OC)c1OC`, the inhibition result is “inactive”.
On the same count and under the same terms, as for `Cc1cc(C(=O)N2CCc3[nH]cnc3C2c2ccc(-n3cncn3)cc2)no1` (stereo not given), the entry is “inactive”; as for `Cc1cc(C(=O)N2CCc3[nH]cnc3C2c2ccc(F)cc2)no1` (stereo not given), “inactive”.
On the same count and under the same terms, then `Cc1cc(C(=O)N2CCCC(CN(C)Cc3ccc(Cl)cc3)C2)no1` (stereo not given), with “inactive”; and `COc1cc(CN(C)C(=O)c2ccc(N3CCc4ccccc4C3)nc2)cc(OC)c1OC`, with “inactive”.
The same measure, in the same setting: as for `Cc1cccc(CN2C(=O)COc3cc(C(=O)N4CCN(Cc5ccccc5)CC4)ccc32)c1`, the entry is “inactive”.
On to `COc1cc(CN(C)C(=O)c2ccc(N3CCC(O)(Cc4ccccc4)CC3)nc2)cc(OC)c1OC`, for which the inhibition result is “inactive”.
On the same count and under the same terms, as for `Cc1ccccc1Cn1cc(NC(=O)c2cc(C3CC3)on2)cn1`, the entry is “inactive”; as for `Cc1cc(C(=O)NCCc2nc(C(=O)NCCN(C)C)cs2)no1`, “inactive”.
Turning to `O=C(Nc1cnn(Cc2ccc(F)cc2)c1)c1noc2c1CC(c1ccccc1)CC2` (stereo not given), the inhibition entry was “inactive”.
Still for that read-out and setting: as for `Cc1onc(-c2ccccc2Cl)c1C(=O)Nc1cnn(Cc2ccccc2)c1`, the entry is “inactive”.
For `CCCN(CC1CC1)CC1CCCN(C(=O)c2cc(C)on2)C1` (stereo not given), the inhibition result was “inactive”.
The same measure, in the same setting: then `COc1cccc(C2c3nc[nH]c3CCN2C(=O)c2cc(C)on2)c1` (stereo not given), with “inactive”; and `Cc1ccccc1Cn1cc(NC(=O)c2noc3c2CCCC3)cn1`, with “inactive”; and `Cc1noc(C)c1CN1C(=O)COc2cc(C(=O)NCc3ccc(C(F)(F)F)nc3)ccc21`, with “inactive”.
Turning to `CCN(Cc1ccncc1)CC1CCCN(C(=O)c2cc(C)on2)C1` (stereo not given), the inhibition entry was “inactive”.
In the case of `O=C(Nc1cnn(Cc2ccc(F)cc2)c1)c1noc2c1CCCC2`, the inhibition entry was “inactive”.
Same read-out and setting: then `Cc1cc(C(=O)N2CCCN(c3cc(-c4cc(F)ccc4C)ncn3)CC2)no1`, with “inactive”.
Same read-out and setting: then `CC(C)(C)c1ccc2onc(C(=O)Nc3cnn(Cc4cccc(F)c4)c3Cl)c2c1`, with “inactive”; and `O=C(Nc1cnn(Cc2ccc(Cl)cc2Cl)c1)c1noc2c1CCCC2`, with “inactive”; and `Cc1cc(C(=O)N2CCCC(CN3CCN(c4cnccn4)CC3)C2)no1` (stereo not given), with “inactive”.
Same read-out and setting: then `O=C(Cn1nc(C2CC2)cc1C(F)F)Nc1cnn(Cc2c(F)cc(F)c(F)c2F)c1`, with “inactive”; and `Cc1ccccc1Cn1cc(NC(=O)c2cc(-c3ccco3)on2)cn1`, with “inactive”; and `COc1cccc(-c2cc(C(=O)Nc3cnn(Cc4ccccc4C)c3)no2)c1`, with “inactive”.
On to `COc1ccccc1-c1cc(C(=O)Nc2cnn(Cc3ccccc3C)c2)no1`, for which the inhibition result was “inactive”.
Same read-out and setting: then `Cc1cc(C(=O)N2CCCC(CN3CCc4ccccc4C3)C2)no1` (stereo not given), with “inactive”; and `O=C(Nc1cnn(Cc2ccc(F)cc2)c1)c1noc2ccccc12`, with “inactive”; and `COc1cc(CN(C)C(=O)c2ccc(N3CCC(O)(c4cccc(C(F)(F)F)c4)CC3)nc2)cc(OC)c1OC`, with “inactive”.
The same measure, in the same setting: as for `Cc1cc(C(=O)N2CCCN(c3cc(-c4ccc5ccccc5c4)ncn3)CC2)no1`, the entry is “inactive”; as for `O=C(Nc1cnn(Cc2ccc(Cl)cc2Cl)c1)c1noc2c1CCCCC2`, “inactive”.
